Reference: patent publication US20240279202A1 (NURIX THERAPEUTICS, INC., priority 2021, published 2024)

Molecular target: T1, ITK (Homo sapiens, UniProt Q08881)
T1 sequence (Q08881 1-620): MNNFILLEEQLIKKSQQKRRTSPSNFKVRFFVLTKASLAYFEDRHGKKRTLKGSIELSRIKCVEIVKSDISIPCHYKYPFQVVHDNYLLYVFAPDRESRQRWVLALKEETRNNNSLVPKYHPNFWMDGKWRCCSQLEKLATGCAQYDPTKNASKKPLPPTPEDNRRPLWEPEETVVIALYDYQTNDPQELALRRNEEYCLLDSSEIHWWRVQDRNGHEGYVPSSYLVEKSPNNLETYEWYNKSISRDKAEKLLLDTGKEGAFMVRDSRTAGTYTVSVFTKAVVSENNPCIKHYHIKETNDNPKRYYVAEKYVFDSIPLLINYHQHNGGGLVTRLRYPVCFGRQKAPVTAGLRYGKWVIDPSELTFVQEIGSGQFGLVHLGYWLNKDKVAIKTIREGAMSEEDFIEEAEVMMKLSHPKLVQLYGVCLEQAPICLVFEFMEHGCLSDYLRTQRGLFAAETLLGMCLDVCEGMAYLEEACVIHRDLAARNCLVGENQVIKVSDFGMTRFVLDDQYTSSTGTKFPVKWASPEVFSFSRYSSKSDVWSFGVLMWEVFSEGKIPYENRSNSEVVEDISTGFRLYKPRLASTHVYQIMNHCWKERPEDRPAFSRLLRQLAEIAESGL
Test: ITK degradation HiBiT assay
Type: cell-based
Parameters: expressed in transfected cells; host or cells: Molt4 (ATCC CRL-1552), monoclonal clone 1C10, engineered to carry the HiBiT tag
Conditions: 4 hrs; for DC50: C-terminal HiBiT-tagged Molt4 cells; for Dmax: MOLT-4, C-terminal HiBiT-tagged Molt4 cells
In short: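 C-terminal HiBiT-tagged Molt4 cells (clone 1C10) treated 4 h at 32° C with an 11-point, 5-fold compound dilution series (0.5% DMSO). HiBiT lytic detection with LgBiT then luminescence read; % ITK remaining versus concentration fit by four-parameter variable-slope model to give DC50 and Dmax.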

Row | Structure (SMILES) | DC50 [nM] | Dmax [%]
1 | C[C@@]12Cc3[nH]nc(C(=O)Nc4cnn(C5CN(CC6CCN(c7ccc(C8CCC(=O)NC8=O)cc7)CC6)C5)c4)c3C[C@@H]1C2(F)F (stereo partly drawn) [Compound 91, (4aS,5aR)-N-(1-(1-((1-(4-(2,6-dioxopiperidin-3-yl)phenyl)piperidin-4-yl)methyl)azetidin-3-yl)-1H-pyrazol-4-yl)-5,5-difluoro-5a-methyl-1,4,4a,5,5a,6-hexahydrocyclopropa[f]indazole-3-carboxamide] | 0.24 | 85
2 | C[C@@]12Cc3[nH]nc(C(=O)Nc4cnn(C5CCN(CC6CCN(c7ccc(C8CCC(=O)NC8=O)cc7)CC6)CC5)c4)c3C[C@@H]1C2(F)F (stereo partly drawn) [Compound 92, (4aS,5aR)-N-(1-(1-((1-(4-(2,6-dioxopiperidin-3-yl)phenyl)piperidin-4-yl)methyl)piperidin-4-yl)-1H-pyrazol-4-yl)-5,5-difluoro-5a-methyl-1,4,4a,5,5a,6-hexahydrocyclopropa[f]indazole-3-carboxamide] | < 0.01 | 89
3 | C[C@@]12Cc3[nH]nc(C(=O)Nc4cnn([C@H]5CCN(CC6CCN(c7ccc(C(=O)N[C@H]8CCC(=O)NC8=O)nc7)CC6)C[C@@H]5F)c4)c3C[C@@H]1C2(F)F [Compound 93, (4aS,5aR)-N-(1-((3S,4S)-1-((1-(6-(((S)-2,6-dioxopiperidin-3-yl)carbamoyl)pyridin-3-yl)piperidin-4-yl)methyl)-3-fluoropiperidin-4-yl)-1H-pyrazol-4-yl)-5,5-difluoro-5a-methyl-1,4,4a,5,5a,6-hexahydrocyclopropa[f]indazole-3-carboxamide] | 1.9 | 97
4 | C[C@@]12Cc3[nH]nc(C(=O)Nc4cnn([C@@H]5CCN(CC6CCN(c7ccc(C(=O)N[C@H]8CCC(=O)NC8=O)nc7)CC6)C[C@H]5F)c4)c3C[C@@H]1C2(F)F [Compound 94, (4aS,5aR)-N-(1-((3R,4R)-1-((1-(6-(((S)-2,6-dioxopiperidin-3-yl)carbamoyl)pyridin-3-yl)piperidin-4-yl)methyl)-3-fluoropiperidin-4-yl)-1H-pyrazol-4-yl)-5,5-difluoro-5a-methyl-1,4,4a,5,5a,6-hexahydrocyclopropa[f]indazole-3-carboxamide] | 3.4 | 83
5 | C[C@@]12Cc3[nH]nc(C(=O)Nc4cnn(C5CCN(CC6(F)CCN(c7ccc(C8CCC(=O)NC8=O)cc7)CC6)CC5)c4)c3C[C@@H]1C2(F)F (stereo partly drawn) [Compound 97, (4aS,5aR)-N-(1-(1-((1-(4-(2,6-dioxopiperidin-3-yl)phenyl)-4-fluoropiperidin-4-yl)methyl)piperidin-4-yl)-1H-pyrazol-4-yl)-5,5-difluoro-5a-methyl-1,4,4a,5,5a,6-hexahydrocyclopropa[f]indazole-3-carboxamide] | 2.6 | 88

Further lines, results first:

Row | DC50 [nM] | Dmax [%] | Structure (SMILES)
6 | 0.7 | 89 | C[C@@]12Cc3[nH]nc(C(=O)Nc4cnn([C@H]5CCN(C[C@H]6CCN(c7ccc(C8CCC(=O)NC8=O)cc7)C6)C[C@@H]5F)c4)c3C[C@@H]1C2(F)F (stereo partly drawn) [Compound 98, (4aS,5aR)-N-(1-((3S,4S)-1-(((3R)-1-(4-(2,6-dioxopiperidin-3-yl)phenyl)pyrrolidin-3-yl)methyl)-3-fluoropiperidin-4-yl)-1H-pyrazol-4-yl)-5,5-difluoro-5a-methyl-1,4,4a,5,5a,6-hexahydrocyclopropa[f]indazole-3-carboxamide]
7 | 3.7 | 85 | C[C@@]12Cc3[nH]nc(C(=O)Nc4cnn([C@@H]5CCN(C[C@H]6CCN(c7ccc(C8CCC(=O)NC8=O)cc7)C6)C[C@H]5F)c4)c3C[C@@H]1C2(F)F (stereo partly drawn) [Compound 99, (4aS,5aR)-N-(1-((3R,4R)-1-(((3R)-1-(4-(2,6-dioxopiperidin-3-yl)phenyl)pyrrolidin-3-yl)methyl)-3-fluoropiperidin-4-yl)-1H-pyrazol-4-yl)-5,5-difluoro-5a-methyl-1,4,4a,5,5a,6-hexahydrocyclopropa[f]indazole-3-carboxamide]
